#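 Grown in 96-well plates, cells were treated for 48 hours with each compound at five concentrations. Insufficient inhibition: endpoint recorded as highest concentration tested. The concentration for 50% growth inhibition is given as GI50.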 Activity calls are given as the source filed them. No stated cut-off is given here; in the data, active = GI50 up to about 1.1 µM and inactive = higher.
# Key:
# Assay in all cases: inhibition of tumour cell growth, NCI panel, 48 h
# [1] = test system: 786-0
# [2] = test system: A498
# [3] = test system: A549
# [4] = test system: ACHN
# [5] = test system: BT-549
# [6] = test system: CAKI-1
# [7] = test system: CCRF-CEM
# [8] = test system: COLO 205
# [9] = test system: DU-145
# [10] = test system: EKVX
# [11] = test system: HCC 2998
# [12] = test system: HCT-116
# [13] = test system: HCT-15
# [14] = test system: HL-60
# [15] = test system: HOP-62
# [16] = test system: HOP-92
# [17] = test system: HT-29
# [18] = test system: Hs-578T
# [19] = test system: IGROV-1
# [20] = test system: K562
# [21] = test system: KM12
# [22] = test system: LOX IMVI
# [23] = test system: M14
# [24] = test system: MCF7
# [25] = test system: MDA-MB-231
# [26] = test system: MDA-MB-435
# [27] = test system: MDA-N
# [28] = test system: MOLT-4
# [29] = test system: Malme-3M
# [30] = test system: NCI-H226
# [31] = test system: NCI-H23
# [32] = test system: NCI-H460
# [33] = test system: NCI-H522
# [34] = test system: NCI/ADR-RES
# [35] = test system: OVCAR-3
# [36] = test system: OVCAR-4
# [37] = test system: OVCAR-5
# [38] = test system: OVCAR-8
# [39] = test system: PC-3
# [40] = test system: RPMI-8226
# [41] = test system: RXF 393
# [42] = test system: SF-268
# [43] = test system: SF-295
# [44] = test system: SF-539
# [45] = test system: SK-MEL-28
# [46] = test system: SK-MEL-2
# [47] = test system: SK-MEL-5
# [48] = test system: SK-OV-3
# [49] = test system: SN12C
# [50] = test system: SNB-19
# [51] = test system: SNB-75
# [52] = test system: SR
# [53] = test system: SW-620
# [54] = test system: T47D
# [55] = test system: TK-10
# [56] = test system: U-251
# [57] = test system: UACC-257
# [58] = test system: UACC-62
# [59] = test system: UO-31
compound,measurement,setting,value
CCOC(=O)/C=C(\C(=O)OCC)n1ccc(=O)n(Cc2cn(COCCOC(C)=O)nn2)c1=O,GI50,[1],15.7 µM (inactive)
same,GI50,[2],> 54.3 µM (inactive)
same,GI50,[3],> 76.4 µM (inactive)
same,GI50,[4],7.05 µM (inactive)
same,GI50,[5],17.8 µM (inactive)
same,GI50,[6],8.67 µM (inactive)
same,GI50,[7],2.83 µM (inactive)
same,GI50,[8],7.94 µM (inactive)
same,GI50,[9],38.8 µM (inactive)
same,GI50,[10],19.9 µM (inactive)
same,GI50,[11],16.6 µM (inactive)
same,GI50,[12],16.3 µM (inactive)
same,GI50,[13],18.9 µM
same,GI50,[14],12.7 µM (inactive)
same,GI50,[15],98.6 µM (inactive)
same,GI50,[16],19 µM (inactive)
same,GI50,[17],16.2 µM (inactive)
same,GI50,[18],26.5 µM (inactive)
same,GI50,[19],21.1 µM (inactive)
same,GI50,[20],24 µM (inactive)
same,GI50,[21],29.6 µM (inactive)
same,GI50,[22],17.9 µM (inactive)
same,GI50,[23],39.8 µM (inactive)
same,GI50,[24],17.1 µM (inactive)
same,GI50,[25],20.2 µM (inactive)
same,GI50,[26],18.7 µM (inactive)
same,GI50,[27],35.2 µM (inactive)
same,GI50,[28],14.9 µM (inactive)
same,GI50,[29],15.2 µM (inactive)
same,GI50,[30],7.67 µM (inactive)
same,GI50,[31],17.7 µM (inactive)
same,GI50,[32],> 38.1 µM (inactive)
same,GI50,[33],2.71 µM (inactive)
same,GI50,[34],20.3 µM (inactive)
same,GI50,[35],23.2 µM (inactive)
same,GI50,[36],19.5 µM (inactive)
same,GI50,[37],23.4 µM (inactive)
same,GI50,[38],16.3 µM (inactive)
same,GI50,[39],20.3 µM (inactive)
same,GI50,[40],22.8 µM (inactive)
same,GI50,[41],15.7 µM (inactive)
same,GI50,[42],26.1 µM (inactive)
same,GI50,[43],> 100 µM (inactive)
same,GI50,[44],20.1 µM (inactive)
same,GI50,[45],18 µM (inactive)
same,GI50,[46],20.8 µM (inactive)
same,GI50,[47],21.5 µM (inactive)
same,GI50,[48],> 100 µM (inactive)
same,GI50,[49],20.7 µM (inactive)
same,GI50,[50],> 50.4 µM (inactive)
same,GI50,[51],> 42.7 µM (inactive)
same,GI50,[52],21 µM (inactive)
same,GI50,[53],9.18 µM (inactive)
same,GI50,[54],24.3 µM (inactive)
same,GI50,[55],15.2 µM (inactive)
same,GI50,[56],18.9 µM (inactive)
same,GI50,[57],22 µM (inactive)
same,GI50,[58],18.8 µM (inactive)
same,GI50,[59],17.7 µM (inactive)
COC(=O)CN1c2nc(C#N)c(C#N)nc2N(CC(=O)OC)c2nc(C#N)c(C#N)nc21,GI50,[1],2.09 µM (inactive)
same,GI50,[2],15.3 µM (inactive)
same,GI50,[3],12 µM (inactive)
same,GI50,[4],1.59 µM (inactive)
same,GI50,[5],4.78 µM (inactive)
same,GI50,[6],0.54 µM (active)
same,GI50,[7],1.01 µM (active)
same,GI50,[8],1.26 µM (inactive)
same,GI50,[9],1.43 µM (inactive)
same,GI50,[10],4.47 µM (inactive)
same,GI50,[11],16.7 µM (inactive)
same,GI50,[12],1.58 µM (inactive)
same,GI50,[13],3.05 µM
same,GI50,[14],2.26 µM (inactive)
same,GI50,[15],16.5 µM (inactive)
same,GI50,[16],1.87 µM (inactive)
same,GI50,[17],3.02 µM (inactive)
same,GI50,[18],19.6 µM (inactive)
same,GI50,[19],3.46 µM (inactive)
same,GI50,[20],1.51 µM (inactive)
same,GI50,[21],8.22 µM (inactive)
same,GI50,[22],2.2 µM (inactive)
same,GI50,[23],1.84 µM (inactive)
same,GI50,[24],3.13 µM (inactive)
same,GI50,[25],6.73 µM (inactive)
same,GI50,[26],2.64 µM (inactive)
same,GI50,[27],3.53 µM (inactive)
same,GI50,[28],0.479 µM (active)
same,GI50,[29],0.301 µM (active)
same,GI50,[30],38.8 µM (inactive)
same,GI50,[31],2.99 µM (inactive)
same,GI50,[32],22 µM (inactive)
same,GI50,[33],0.863 µM (active)
same,GI50,[34],18.7 µM (inactive)
same,GI50,[35],2.92 µM (inactive)
same,GI50,[36],3.1 µM (inactive)
same,GI50,[37],8 µM (inactive)
same,GI50,[38],2.37 µM (inactive)
same,GI50,[39],4.15 µM (inactive)
same,GI50,[40],1.87 µM (inactive)
same,GI50,[41],2.91 µM (inactive)
same,GI50,[42],4.05 µM (inactive)
same,GI50,[43],19.5 µM (inactive)
same,GI50,[44],7.11 µM (inactive)
same,GI50,[45],3.74 µM (inactive)
same,GI50,[46],8.81 µM (inactive)
same,GI50,[47],5.4 µM (inactive)
same,GI50,[48],15.3 µM (inactive)
same,GI50,[49],3.34 µM (inactive)
same,GI50,[50],12 µM (inactive)
same,GI50,[51],14 µM (inactive)
same,GI50,[52],2 µM (inactive)
same,GI50,[53],1.76 µM (inactive)
same,GI50,[54],2.35 µM (inactive)
same,GI50,[55],2.5 µM (inactive)
same,GI50,[56],6.81 µM (inactive)
same,GI50,[57],2.72 µM (inactive)
same,GI50,[58],5.45 µM (inactive)
same,GI50,[59],1.69 µM (inactive)

# — ChEMBL document CHEMBL1201862, “PubChem BioAssay data set” (2004)
